{
  "source": "patent US9663473B2",
  "about": "(Actelion Pharmaceuticals Ltd, priority 2013, dated 2017)",
  "note": "Where a name gives a salt, the structure may show the parent alone.",
  "data": [
    {"target": "T1, recombinant human ALX receptor (Homo sapiens, UniProt P25090)", "T1 construct": "expressed in transfected cells; host or cells: HEK293 (HEK293-hALXR-Gα16)", "T1 sequence (P25090 1-351)": "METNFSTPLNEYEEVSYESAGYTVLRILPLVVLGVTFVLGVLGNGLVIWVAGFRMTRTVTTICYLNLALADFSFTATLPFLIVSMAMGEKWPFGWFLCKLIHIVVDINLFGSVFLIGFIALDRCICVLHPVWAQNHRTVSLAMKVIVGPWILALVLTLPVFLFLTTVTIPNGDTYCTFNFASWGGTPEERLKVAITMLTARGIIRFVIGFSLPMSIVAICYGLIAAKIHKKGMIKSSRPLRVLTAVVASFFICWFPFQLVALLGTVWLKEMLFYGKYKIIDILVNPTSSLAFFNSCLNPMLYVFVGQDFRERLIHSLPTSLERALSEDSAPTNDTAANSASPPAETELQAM", "assay": "Intracellular calcium measurements (FLIPR), ALX receptor agonistic activity", "type": "cell-based", "details": "HEK293-hALXR-Gα16 cells, Fluo-4 calcium signal, normalized to WKYMVm 10 nM", "method_in_brief": "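HEK293 cells co-expressing human ALX receptor and Gα16 were loaded with 1 μM Fluo-4 AM for 60 min at 37° C., then exposed to serially diluted compounds on FLIPR Tetra. Peak fluorescence above baseline (ex 488/em 540 nm) was normalized to 10 nM WKYMVm as high control.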", "units": {"EC50": "nM"}, "values": [
      {"smiles": "COc1ccc(CC(NC(=O)NCC(F)(F)F)c2nc3ccccc3[nH]2)cc1", "note": "(centres unmarked) [Example 9, 1-(1-(1H-Benzo[d]imidazol-2-yl)-2-(4-methoxyphenyl)ethyl)-3-(2,2,2-trifluoroethyl)urea]", "EC50": 450},
      {"smiles": "CCOc1ccccc1CNC(=O)N[C@H](Cc1ccc(OC)cc1)c1nc2ccccc2[nH]1", "note": "[Example 60, (R)-1-(1-(1H-Benzo[d]imidazol-2-yl)-2-(4-methoxyphenyl)ethyl)-3-(2-ethoxybenzyl)urea hydrochloride]", "EC50": 161},
      {"smiles": "COc1ccc(CC(NC(=O)N[C@H]2CC[C@H](O)CC2)c2nc3ccc(F)cc3[nH]2)c(F)c1", "note": "(single isomer, unassigned; ent-1) [Example 260, 1-(1-(6-Fluoro-1H-benzo[d]imidazol-2-yl)-2-(2-fluoro-4-methoxyphenyl)ethyl)-3-(trans-4-hydroxycyclohexyl)urea (ent-1)]", "EC50": 0.4},
      {"smiles": "COc1ccc(C[C@@H](NC(=O)NC2CN3CCC2CC3)c2nc3ccc(C#N)cc3[nH]2)cc1", "note": "(stereo partly drawn) [Example 154, 1-((R)-1-(6-Cyano-1H-benzo[d]imidazol-2-yl)-2-(4-methoxyphenyl)ethyl)-3-(quinuclidin-3-yl)urea]", "EC50": 6.8},
      {"smiles": "COc1ccc(CC(NC(=O)Nc2ccnn2-c2ccc(C(C)C)cc2)c2nc3ccccc3[nH]2)cc1", "note": "(centres unmarked) [Example 407, 1-(1-(1H-benzo[d]imidazol-2-yl)-2-(4-methoxyphenyl)ethyl)-3-(1-(4-isopropylphenyl)-1H-pyrazol-5-yl)urea]", "EC50": 156},
      {"smiles": "COc1ccc(C[C@@H](NC(=O)N[C@H]2CC[C@@H](C(=O)OC)CC2)c2nc3ccccc3[nH]2)cc1", "note": "[Example 223, cis-Methyl 4-(3-((R)-1-(1H-benzo[d]imidazol-2-yl)-2-(4-methoxyphenyl)ethyl)ureido)cyclohexanecarboxylate]", "EC50": 178},
      {"smiles": "COc1ccc(CC(NC(=O)Nc2ccnn2Cc2ccccc2)c2nc3ccccc3[nH]2)cc1", "note": "(centres unmarked) [Example 415, 1-(1-(1H-benzo[d]imidazol-2-yl)-2-(4-methoxyphenyl)ethyl)-3-(1-benzyl-1H-pyrazol-5-yl)urea]", "EC50": 101},
      {"smiles": "COc1ccc(CC(NC(=O)N[C@H]2CC[C@](C)(O)CC2)c2nc3ccccc3[nH]2)c(F)c1", "note": "(mixture of isomers) [Example 234, 1-(1-(1H-Benzo[d]imidazol-2-yl)-2-(2-fluoro-4-methoxyphenyl)ethyl)-3-(trans-4-hydroxy-4-methylcyclohexyl)urea]", "EC50": 5.1},
      {"smiles": "COc1ccc(C[C@@H](NC(=O)NCc2ccccn2)c2nc3ccccc3[nH]2)cc1", "note": "[Example 268, (R)-1-(1-(1H-Benzo[d]imidazol-2-yl)-2-(4-methoxyphenyl)ethyl)-3-(pyridin-2-ylmethyl)urea]", "EC50": 659},
      {"smiles": "COc1ccc(C[C@@H](NC(=O)NC2CCc3cccc(OC)c3C2)c2nc3ccccc3[nH]2)cc1", "note": "(stereo partly drawn) [Example 30, 1-((R)-1-(1H-Benzo[d]imidazol-2-yl)-2-(4-methoxyphenyl)ethyl)-3-(8-methoxy-1,2,3,4-tetrahydronaphthalen-2-yl)urea]", "EC50": 26},
      {"smiles": "COc1ccc(C[C@@H](NC(=O)NC(CCO)c2ccccc2)c2nc3ccccc3[nH]2)cc1", "note": "(stereo partly drawn) [Example 343, 1-((R)-1-(1H-Benzo[d]imidazol-2-yl)-2-(4-methoxyphenyl)ethyl)-3-(3-hydroxy-1-phenylpropyl)urea]", "EC50": 40},
      {"smiles": "COc1ccc(C[C@@H](NC(=O)NC[C@H](O)c2ccccc2)c2nc3ccccc3[nH]2)cc1", "note": "[Example 290, 1-((R)-1-(1H-Benzo[d]imidazol-2-yl)-2-(4-methoxyphenyl)ethyl)-3-((R)-2-hydroxy-2-phenylethyl)urea]", "EC50": 37},
      {"smiles": "COc1ccc(C[C@@H](NC(=O)NC2Cc3ccccc3C2)c2nc3ccccc3[nH]2)cc1", "note": "[Example 26, (R)-1-(1-(1H-Benzo[d]imidazol-2-yl)-2-(4-methoxyphenyl)ethyl)-3-(2,3-dihydro-1H-inden-2-yl)urea]", "EC50": 109},
      {"smiles": "COc1ccc(C[C@@H](NC(=O)NCCc2cccc(Cl)c2)c2nc3ccccc3[nH]2)cc1", "note": "[Example 61, (R)-1-(1-(1H-Benzo[d]imidazol-2-yl)-2-(4-methoxyphenyl)ethyl)-3-(3-chlorophenethyl)urea hydrochloride]", "EC50": 239},
      {"smiles": "Cc1ccc2nc([C@@H](Cc3ccc(Br)cc3)NC(=O)N[C@H]3CC[C@H](O)CC3)[nH]c2c1", "note": "[Example 221, 1-((R)-2-(4-Bromophenyl)-1-(6-methyl-1H-benzo[d]imidazol-2-yl)ethyl)-3-(trans-4-hydroxycyclohexyl)urea]", "EC50": 4},
      {"smiles": "COC(=O)N1CC2CCC1CN2C(=O)N[C@H](Cc1ccc(OC)cc1)c1nc2ccccc2[nH]1", "note": "(stereo partly drawn) [Example 162, Methyl 5-(((R)-1-(1H-benzo[d]imidazol-2-yl)-2-(4-methoxyphenyl)ethyl)carbamoyl)-2,5-diazabicyclo[2.2.2]octane-2-carboxylate]", "EC50": 866},
      {"smiles": "COc1ccc(C[C@@H](NC(=O)NCc2cc(Cl)ccc2Cl)c2nc3ccccc3[nH]2)cc1", "note": "[Example 303, (R)-1-(1-(1H-Benzo[d]imidazol-2-yl)-2-(4-methoxyphenyl)ethyl)-3-(2,5-dichlorobenzyl)urea]", "EC50": 426},
      {"smiles": "COc1ccc(C[C@@H](NC(=O)N[C@@H](C)c2ccc(C)cc2)c2nc3ccccc3[nH]2)cc1", "note": "[Example 333, 1-((R)-1-(1H-Benzo[d]imidazol-2-yl)-2-(4-methoxyphenyl)ethyl)-3-((S)-1-(p-tolyl)ethyl)urea]", "EC50": 105},
      {"smiles": "COc1ccc(C[C@@H](NC(=O)NC(C)c2ccc(OC(F)(F)F)cc2)c2nc3ccccc3[nH]2)cc1", "note": "(stereo partly drawn) [Example 381, 1-((R)-1-(1H-Benzo[d]imidazol-2-yl)-2-(4-methoxyphenyl)ethyl)-3-(1-(4-(trifluoromethoxy)phenyl)ethyl)urea]", "EC50": 1170},
      {"smiles": "CCOCc1ccccc1CNC(=O)NC(Cc1ccc(OC)cc1)c1nc2ccccc2[nH]1", "note": "(centres unmarked) [Example 50, 1-(1-(1H-Benzo[d]imidazol-2-yl)-2-(4-methoxyphenyl)ethyl)-3-(2-(ethoxymethyl)benzyl)urea]", "EC50": 136},
      {"smiles": "COc1ccc(C[C@@H](NC(=O)NC2CCCCCC2)c2nc3ccccc3[nH]2)cc1", "note": "[Example 99, (R)-1-(1-(1H-Benzo[d]imidazol-2-yl)-2-(4-methoxyphenyl)ethyl)-3-cycloheptylurea]", "EC50": 57},
      {"smiles": "COc1ccc(C[C@@H](NC(=O)N[C@H]2CC[C@H](O)CC2)c2nc3cc(OC)ccc3[nH]2)cc1", "note": "[Example 84, 1-(trans-4-Hydroxycyclohexyl)-3-((R)-1-(5-methoxy-1H-benzo[d]imidazol-2-yl)-2-(4-methoxyphenyl)ethyl)urea]", "EC50": 11},
      {"smiles": "COc1ccc(CC(NC(=O)NCc2cc(C3CC3)on2)c2nc3ccccc3[nH]2)cc1", "note": "(centres unmarked) [Example 380, 1-(1-(1H-Benzo[d]imidazol-2-yl)-2-(4-methoxyphenyl)ethyl)-3-((5-cyclopropylisoxazol-3-yl)methyl)urea]", "EC50": 1090},
      {"smiles": "COc1ccc(C[C@@H](NC(=O)NCC(c2ccccc2)N2CCOCC2)c2nc3ccccc3[nH]2)cc1", "note": "(stereo partly drawn) [Example 215, 1-((R)-1-(1H-Benzo[d]imidazol-2-yl)-2-(4-methoxyphenyl)ethyl)-3-(2-morpholino-2-phenylethyl)urea]", "EC50": 8.9},
      {"smiles": "COc1cc(F)c(CC(NC(=O)NC23CCC(O)(CC2)CC3)c2nc3ccc(F)cc3[nH]2)c(F)c1", "note": "(single isomer, unassigned; ent-2) [Example 373, 1-(2-(2,6-Difluoro-4-methoxyphenyl)-1-(6-fluoro-1H-benzo[d]imidazol-2-yl)ethyl)-3-(4-hydroxybicyclo[2.2.2]octan-1-yl)urea (ent-2)]", "EC50": 107},
      {"smiles": "COc1ccc(C[C@@H](NC(=O)NC2(c3ccccc3)CC2)c2nc3ccccc3[nH]2)cc1", "note": "[Example 351, (R)-1-(1-(1H-Benzo[d]imidazol-2-yl)-2-(4-methoxyphenyl)ethyl)-3-(1-phenylcyclopropyl)urea]", "EC50": 350},
      {"smiles": "COc1ccc(C[C@@H](NC(=O)NCCc2ccc(C)c(C)c2)c2nc3ccccc3[nH]2)cc1", "note": "[Example 275, (R)-1-(1-(1H-Benzo[d]imidazol-2-yl)-2-(4-methoxyphenyl)ethyl)-3-(3,4-dimethylphenethyl)urea]", "EC50": 126},
      {"smiles": "COc1ccc(C[C@@H](NC(=O)NCc2ccccc2OCC(F)(F)F)c2nc3ccccc3[nH]2)cc1", "note": "[Example 219, (R)-1-(1-(1H-Benzo[d]imidazol-2-yl)-2-(4-methoxyphenyl)ethyl)-3-(2-(2,2,2-trifluoroethoxy)benzyl)urea]", "EC50": 14},
      {"smiles": "COc1ccc(CC(NC(=O)NCc2cnc3ccccn23)c2nc3ccccc3[nH]2)cc1", "note": "(centres unmarked) [Example 51, 1-(1-(1H-Benzo[d]imidazol-2-yl)-2-(4-methoxyphenyl)ethyl)-3-(imidazo[1,2-a]pyridin-3-ylmethyl)urea]", "EC50": 990},
      {"smiles": "COc1ccc(C[C@@H](NC(=O)NC2CCCN(CCF)C2)c2nc3ccccc3[nH]2)cc1", "note": "(stereo partly drawn) [Example 180, 1-((R)-1-(1H-Benzo[d]imidazol-2-yl)-2-(4-methoxyphenyl)ethyl)-3-(1-(2-fluoroethyl)piperidin-3-yl)urea]", "EC50": 59},
      {"smiles": "COc1ccc(C[C@@H](NC(=O)NCCc2ccccc2C)c2nc3ccccc3[nH]2)cc1", "note": "[Example 63, (R)-1-(1-(1H-Benzo[d]imidazol-2-yl)-2-(4-methoxyphenyl)ethyl)-3-(2-methylphenethyl)urea hydrochloride]", "EC50": 105},
      {"smiles": "COc1ccc(C[C@@H](NC(=O)N[C@H]2CCCNC2)c2nc3ccccc3[nH]2)cc1", "note": "[Example 132, 1-((R)-1-(1H-Benzo[d]imidazol-2-yl)-2-(4-methoxyphenyl)ethyl)-3-((S)-piperidin-3-yl)urea]", "EC50": 23}
    ]}
  ]
}
